Measurements as given in patent US6461545B1, “Method of solubilizing and encapsulating itraconazole” (Emisphere Technologies, Inc., priority 1995, dated 2002).

Assays:
[1] = Solubilization of itraconazole in aqueous acetic acid solutions, visually monitored for dissolution (Example 1); format: physicochemical; conditions: 100 mg itraconazole
Procedure: Acetic acid solutions were prepared in water to 10%, 20%, 50% and 75% concentrations (expressed as volume glacial acetic acid/total volume of solution ×100). 100 mg itraconazole solute were then mixed independently with 1 ml of each solution and visually monitored for dissolution. If necessary, additional 1 ml aliquots of each acetic acid solution were added until the itraconazole solute was dissolved.

[2] = cited from earlier work

Solubility ([1]; 10% acetic acid v:v, 1 ml solvent, cold): Ins. | Solubility ([1]; 10% acetic acid v:v, 1 ml solvent, hot): Ins. | Solubility ([1]; 10% acetic acid v:v, 2 ml solvent, cold): Ins. | Solubility ([1]; 10% acetic acid v:v, 2 ml solvent, hot): Ins. | Solubility ([1]; 10% acetic acid v:v, 3 ml solvent, cold): Ins. | Solubility ([1]; 10% acetic acid v:v, 3 ml solvent, hot): Ins. | Solubility ([1]; 10% acetic acid v:v, 4 ml solvent, hot): Ins. | Solubility ([1]; 20% acetic acid v:v, 1 ml solvent, cold): Ins. | Solubility ([1]; 20% acetic acid v:v, 1 ml solvent, hot): Ins. | Solubility ([1]; 20% acetic acid v:v, 2 ml solvent, cold): Ins. | Solubility ([1]; 20% acetic acid v:v, 2 ml solvent, hot): Ins. | Solubility ([1]; 20% acetic acid v:v, 3 ml solvent, cold): Ins. | Solubility ([1]; 20% acetic acid v:v, 3 ml solvent, hot): Part | Solubility ([1]; 50% acetic acid v:v, 1 ml solvent, cold): Ins. | Solubility ([1]; 50% acetic acid v:v, 1 ml solvent, hot): Ins. | Solubility ([1]; 50% acetic acid v:v, 2 ml solvent, cold): Ins. | Solubility ([1]; 50% acetic acid v:v, 2 ml solvent, hot): Sol. | Solubility ([1]; 50% acetic acid v:v, 3 ml solvent, cold): Ins. | Solubility ([1]; 75% acetic acid v:v, 1 ml solvent, cold): Sol.
SMILES: CCC(C)n1ncn(-c2ccc(N3CCN(c4ccc(OCC5COC(Cn6cncn6)(c6ccc(Cl)cc6Cl)O5)cc4)CC3)cc2)c1=O (racemic) [itraconazole]
solubility in water [2]: less than 0.00001 g/ml
